Assay results as given in patent US20230203098A1, “HUMAN TRANSFERRIN RECEPTOR BINDING PEPTIDE” (priority 2020, published 2023).
Like-named read-outs stand apart in the source and are kept apart here. Where a SMILES comes first, the peptide text is derived from it. Bridges are numbered along the chain shown (N, C = ends). [ ]: non-standard residue; d: D form. Ala(imidazo(1,2-a)pyr3yl) = N[C@@H](Cc1cnc2ccccn12)C(=O)O; Trp(1-CH2COOH) = N[C@@H](Cc1cn(CC(=O)O)c2ccccc12)C(=O)O; NMePhe(3-Cl) = CN[C@@H](Cc1cccc(Cl)c1)C(=O)O; NMeW = CN[C@@H](Cc1c[nH]c2ccccc12)C(=O)O; NMeY = CN[C@@H](Cc1ccc(O)cc1)C(=O)O; Aad = N[C@@H](CCCC(=O)O)C(=O)O; PEG4 = NCCOCCOCCOCCOCCC(=O)O; hLys = NCCCCC[C@H](N)C(=O)O; Nle = CCCC[C@H](N)C(=O)O; Orn = NCCC[C@H](N)C(=O)O; Sar = CNCC(=O)O

Molecular target: transferrin receptor (hTfR) (Homo sapiens, UniProt P02786)
Sequence (P02786 whole entry): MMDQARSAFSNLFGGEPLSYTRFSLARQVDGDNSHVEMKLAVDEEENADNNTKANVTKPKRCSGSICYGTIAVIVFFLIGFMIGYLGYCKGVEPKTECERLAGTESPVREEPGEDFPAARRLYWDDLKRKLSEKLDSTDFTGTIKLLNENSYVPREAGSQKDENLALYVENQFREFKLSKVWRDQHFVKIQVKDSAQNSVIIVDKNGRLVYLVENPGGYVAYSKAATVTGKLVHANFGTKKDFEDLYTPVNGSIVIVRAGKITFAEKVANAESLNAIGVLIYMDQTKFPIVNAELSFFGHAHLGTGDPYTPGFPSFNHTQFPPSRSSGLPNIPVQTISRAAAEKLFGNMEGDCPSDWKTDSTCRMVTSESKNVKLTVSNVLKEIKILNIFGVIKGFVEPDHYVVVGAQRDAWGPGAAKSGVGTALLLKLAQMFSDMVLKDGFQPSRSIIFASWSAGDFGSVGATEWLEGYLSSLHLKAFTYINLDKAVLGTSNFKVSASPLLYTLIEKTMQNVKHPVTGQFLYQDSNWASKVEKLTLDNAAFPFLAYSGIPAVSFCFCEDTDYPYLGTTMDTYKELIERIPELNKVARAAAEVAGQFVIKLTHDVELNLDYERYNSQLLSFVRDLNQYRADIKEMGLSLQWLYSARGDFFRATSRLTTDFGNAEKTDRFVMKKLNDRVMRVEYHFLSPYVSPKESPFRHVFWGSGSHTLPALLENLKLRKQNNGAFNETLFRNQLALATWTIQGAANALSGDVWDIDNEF
Assay: Intermolecular interaction evaluation test between transferrin receptor (hTfR) and peptide by surface plasmon resonance (SPR)
Assay type: binding
In short: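 Receptor was Ni-captured and EDC/NHS-fixed on an NTA chip; running buffer HEPES pH 8.0 with NaCl, Tween 20, BSA and 1.0% DMSO.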

[1] = surface plasmon resonance, peptide vs hTfR, read-out: KD value, hTfR binding by SPR (class symbol)
[2] = surface plasmon resonance, peptide vs hTfR, read-out: KD value for hTfR by SPR (class symbol)
[3] = SPR, linker and payload (FITC, VivoTag) conjugates, read-out: KD
[4] = surface plasmon resonance, hTfR, read-out: KD value for hTfR by SPR (class symbol)

CC[C@H](C)[C@@H]1NC(=O)[C@H](Cc2ccc(O)cc2)NC(=O)[C@H](Cc2ccc(O)cc2)NC(=O)[C@H](CC(N)=O)NC(=O)[C@H](Cc2c[nH]c3ccccc23)NC(=O)[C@H](C(C)C)NC(=O)[C@H](Cc2ccccc2)N(C)C(=O)[C@H](C(C)C)NC(=O)[C@H](C)NC(=O)CSC[C@@H](C(=O)NCC(=O)N[C@@H](CCCCN=[N+]=[N-])C(N)=O)NC(=O)[C@H](Cc2ccc(O)cc2)N(C)C(=O)[C@H](Cc2ccc(O)cc2)NC(=O)[C@H](CCCNC(=N)N)NC(=O)[C@H](CCCNC(=N)N)NC(=O)[C@H]([C@@H](C)CC)NC1=O [compound 297]
Kd [1]: 1 to 100 nM

CC[C@H](C)[C@@H]1NC(=O)[C@@H]2CCCNC(=O)CC[C@H](NC(=O)[C@H](C(C)C)NC(=O)[C@H](C)NC(=O)CSC[C@@H](C(N)=O)NC(=O)[C@H](Cc3ccc(O)cc3)N(C)C(=O)[C@H](Cc3ccc(O)cc3)NC(=O)[C@H](CCCNC(=N)N)NC(=O)[C@H](CCCNC(=N)N)NC(=O)[C@H]([C@@H](C)CC)NC1=O)C(=O)N[C@@H](C(C)C)C(=O)N(C)[C@@H](Cc1c[nH]c3ccccc13)C(=O)N[C@@H](CC(N)=O)C(=O)N[C@@H](Cc1ccc(O)cc1)C(=O)N2 [compound 415] ({CH2CO}-AVEV[NMeW]NY[Orn]IIRRY[NMeY]C-NH2; lactam 3-8 (inferred); thioether N-15 (inferred))
Kd [2]: 100 to 1000 nM

CC[C@H](C)[C@@H]1NC(=O)[C@H](Cc2ccc(O)cc2)NC(=O)[C@H](Cc2ccc(O)cc2)NC(=O)[C@H](CC(N)=O)NC(=O)[C@H](Cc2c[nH]c3ccccc23)NC(=O)[C@H](C(C)C)NC(=O)[C@H](Cc2ccccc2)N(C)C(=O)[C@H](C(C)C)NC(=O)[C@H](C)NC(=O)CSC[C@@H](C(=O)NCCOCCOCCOCCOCCC(=O)N[C@@H](CNC(=O)c2ccc(-c3c4ccc(=O)cc-4oc4cc(O)ccc34)c(C(=O)O)c2)C(N)=O)NC(=O)[C@H](Cc2ccc(O)cc2)N(C)C(=O)[C@H](Cc2ccc(O)cc2)NC(=O)[C@H](CCCNC(=N)N)NC(=O)[C@H](CCCNC(=N)N)NC(=O)[C@H]([C@@H](C)CC)NC1=O [compound 162]
Kd [3]: 1 to 100 nM

CC[C@H](C)[C@@H]1NC(=O)[C@H](Cc2ccc(O)cc2)NC(=O)[C@H](Cc2ccc(O)cc2)NC(=O)[C@H](CC(N)=O)NC(=O)[C@H](Cc2c[nH]c3ccccc23)N(C)C(=O)[C@H](C(C)C)NC(=O)[C@H](Cc2ccccc2)NC(=O)[C@H](C(C)C)NC(=O)[C@H](C)NC(=O)CSC[C@@H](C(=O)NCCOCCOCCOCCOCCC(=O)N[C@@H](CNC(=O)c2ccc(-c3c4ccc(=O)cc-4oc4cc(O)ccc34)c(C(=O)O)c2)C(N)=O)NC(=O)[C@H](Cc2ccc(O)cc2)N(C)C(=O)[C@H](Cc2ccc(O)cc2)NC(=O)[C@H](CCCNC(=N)N)NC(=O)[C@H](CCCNC(=N)N)NC(=O)[C@H]([C@@H](C)CC)NC1=O [compound 163]
Kd [3]: 1 to 100 nM

CC[C@H](C)[C@@H]1NC(=O)[C@H](Cc2ccc(OC)cc2)NC(=O)[C@H](Cc2ccc(O)cc2)NC(=O)[C@H](CC(N)=O)NC(=O)[C@H](Cc2c[nH]c3ccccc23)N(C)C(=O)[C@H](C(C)C)NC(=O)[C@H](Cc2cccc(Cl)c2)N(C)C(=O)[C@H](C(C)C)NC(=O)[C@H](C)NC(=O)CSC[C@@H](C(=O)NCC(=O)N[C@H](CCC(=O)O)C(=O)NCC(=O)N[C@H](CCCCN)C(=O)N[C@@H](CO)C(=O)N[C@@H](CO)C(=O)N[C@@H](CS)C(N)=O)NC(=O)[C@H](Cc2ccc(O)cc2)N(C)C(=O)[C@H](Cc2ccccc2)NC(=O)[C@@H](CCCNC(=N)N)NC(=O)[C@H](CCCNC(=N)N)NC(=O)[C@H]([C@@H](C)CC)NC1=O [compound 404] ({CH2CO}-AV[NMePhe(3-Cl)]V[NMeW]NYY(Me)IIR[dR]F[NMeY]CG[dE]G[dK]SSC-NH2; thioether N-15)
Kd [4]: 1 to 100 nM

CC[C@H](C)[C@@H]1NC(=O)[C@H](Cc2ccc(OC)cc2)NC(=O)[C@H](Cc2ccc(O)cc2)NC(=O)[C@H](CC(N)=O)NC(=O)[C@H](Cc2c[nH]c3ccccc23)N(C)C(=O)[C@H](C(C)C)NC(=O)[C@H](Cc2cccc(Cl)c2)N(C)C(=O)[C@H](C(C)C)NC(=O)[C@H](C)NC(=O)CSC[C@@H](C(=O)N(C)CC(=O)N(C)CC(=O)N(C)CC(N)=O)NC(=O)[C@H](Cc2ccc(O)cc2)N(C)C(=O)[C@H](Cc2ccccc2)NC(=O)[C@@H](CCCNC(=N)N)NC(=O)[C@H](CCCNC(=N)N)NC(=O)[C@H]([C@@H](C)CC)NC1=O [compound 399] ({CH2CO}-AV[NMePhe(3-Cl)]V[NMeW]NYY(Me)IIR[dR]F[NMeY]C[Sar][Sar][Sar]-NH2; thioether N-15)
Kd: 1 to 100 nM

CC[C@H](C)[C@@H]1NC(=O)[C@H](Cc2ccc(OC)cc2)NC(=O)[C@H](Cc2ccc(O)cc2)NC(=O)[C@H](CC(N)=O)NC(=O)[C@H](Cc2c[nH]c3ccccc23)N(C)C(=O)[C@H](C(C)C)NC(=O)[C@H](Cc2cccc(Cl)c2)N(C)C(=O)[C@H](CCC(=O)N[C@H](CCC(=O)O)C(=O)O)NC(=O)[C@H](C)NC(=O)CSC[C@@H](C(N)=O)NC(=O)[C@H](Cc2ccc(O)cc2)N(C)C(=O)[C@H](Cc2ccccc2)NC(=O)[C@@H](CCCNC(=N)N)NC(=O)[C@H](CCCNC(=N)N)NC(=O)[C@H]([C@@H](C)CC)NC1=O [compound 241]
Kd (binding to hTfR by SPR, Table 2 peptides, read-out: KD value (SPR) class): 1 to 100 nM

CC[C@H](C)[C@@H]1NC(=O)[C@H](Cc2ccc(OC)cc2)NC(=O)[C@H](Cc2ccc(O)cc2)NC(=O)[C@H](CC(N)=O)NC(=O)[C@H](Cc2c[nH]c3ccccc23)N(C)C(=O)[C@H](C(C)C)NC(=O)[C@H](Cc2cccc(Cl)c2)N(C)C(=O)[C@H](C(C)C)NC(=O)[C@H](C)NC(=O)CSC[C@@H](C(N)=O)NC(=O)[C@H](Cc2ccc(O)cc2)N(C)C(=O)[C@H](Cc2ccccc2)NC(=O)[C@H](CCCNC(=N)N)NC(=O)[C@H](CCCNC(=N)N)NC(=O)[C@H]([C@@H](C)CC)NC1=O [compound 386]
Kd [4]: 1 to 100 nM

CC[C@H](C)[C@@H]1NC(=O)[C@H](Cc2ccc(O)cc2)NC(=O)[C@H](Cc2ccc(O)cc2)NC(=O)[C@H](CC(N)=O)NC(=O)[C@H](Cc2cn(CC(=O)O)c3ccccc23)NC(=O)[C@H](C(C)C)NC(=O)[C@H](Cc2cccc(Cl)c2)N(C)C(=O)[C@@H]2CCCC(=O)NCCCCC[C@H](NC(=O)[C@H]([C@@H](C)CC)NC1=O)C(=O)N[C@H](CCCNC(=N)N)C(=O)N[C@@H](Cc1ccccc1)C(=O)N(C)[C@@H](Cc1ccc(O)cc1)C(=O)N[C@H](C(N)=O)CSCC(=O)N[C@@H](C)C(=O)N2 [compound 419] ({CH2CO}-A[Aad][NMePhe(3-Cl)]V[Trp(1-CH2COOH)]NYYII[hLys][dR]F[NMeY]C-NH2; lactam 2-11; thioether N-15)
Kd [2]: 1 to 100 nM

CC[C@H](C)[C@@H]1NC(=O)[C@H](Cc2cnc3ccccn23)NC(=O)[C@H](Cc2ccc(O)cc2)NC(=O)[C@H](CC(N)=O)NC(=O)[C@H](Cc2c[nH]c3ccccc23)N(C)C(=O)[C@H](C(C)C)NC(=O)[C@H](Cc2cccc(Cl)c2)N(C)C(=O)[C@H](C(C)C)NC(=O)[C@H](C)NC(=O)CSC[C@@H](C(N)=O)NC(=O)[C@H](Cc2ccc(O)cc2)N(C)C(=O)[C@H](Cc2ccccc2)NC(=O)[C@@H](CCCNC(=N)N)NC(=O)[C@H](CCCNC(=N)N)NC(=O)[C@H]([C@@H](C)CC)NC1=O [compound 456] ({CH2CO}-AV[NMePhe(3-Cl)]V[NMeW]NY[Ala(imidazo(1,2-a)pyr3yl)]IIR[dR]F[NMeY]C-NH2; thioether N-15)
Kd (SPR, hTfR, class symbols A-D, read-out: KD): 1 to 100 nM

CC[C@H](C)[C@@H]1NC(=O)[C@H](Cc2ccc(O)cc2)NC(=O)[C@H](Cc2ccc(O)cc2)NC(=O)[C@H](CC(N)=O)NC(=O)[C@H](Cc2c[nH]c3ccccc23)N(C)C(=O)[C@H](C(C)C)NC(=O)[C@H](Cc2cccc(Cl)c2)N(C)C(=O)[C@@H]2CCC(=O)NCC(=O)NCCCC[C@H](NC(=O)[C@H]([C@@H](C)CC)NC1=O)C(=O)N[C@@H](CCCNC(=N)N)C(=O)N[C@@H](Cc1ccc(O)cc1)C(=O)N(C)[C@@H](Cc1ccc(O)cc1)C(=O)N[C@H](C(N)=O)CSCC(=O)N[C@@H](C)C(=O)N2 [compound 417]
Kd [2]: 1 to 100 nM

CC[C@H](C)[C@@H]1NC(=O)[C@H](Cc2ccc(OC)cc2)NC(=O)[C@H](Cc2ccc(O)cc2)NC(=O)[C@H](CC(N)=O)NC(=O)[C@H](Cc2c[nH]c3ccccc23)N(C)C(=O)[C@H](C(C)C)NC(=O)[C@H](Cc2cccc(Cl)c2)N(C)C(=O)[C@H](C(C)C)NC(=O)[C@H](C)NC(=O)CSC[C@@H](C(N)=O)NC(=O)[C@H](Cc2ccc(O)cc2)N(C)C(=O)[C@H](Cc2ccccc2)NC(=O)[C@@H](C)NC(=O)[C@H](CCCNC(=N)N)N(C)C(=O)[C@H]([C@@H](C)CC)NC1=O [compound 383]
Kd [4]: 100 to 1000 nM

CCCC[C@@H]1NC(=O)[C@H]([C@@H](C)CC)NC(=O)[C@H]([C@@H](C)CC)NC(=O)[C@H](Cc2ccc(OC)cc2)NC(=O)[C@H](Cc2ccc(O)cc2)NC(=O)[C@H](CC(N)=O)NC(=O)[C@H](Cc2c[nH]c3ccccc23)N(C)C(=O)[C@H](C(C)C)NC(=O)[C@H](Cc2cccc(Cl)c2)N(C)C(=O)[C@H](C(C)C)NC(=O)[C@H](C)NC(=O)CSC[C@@H](C(=O)NCCOCCOCCOCCOCCC(N)=O)NC(=O)[C@H](Cc2ccc(O)cc2)N(C)C(=O)[C@H](Cc2ccccc2)NC(=O)[C@@H](CCCNC(=N)N)NC1=O [compound 361] ({CH2CO}-AV[NMePhe(3-Cl)]V[NMeW]NYY(Me)II[Nle][dR]F[NMeY]C[PEG4]-NH2; thioether N-15)
Kd [4]: 1 to 100 nM

CC[C@H](C)[C@@H]1NC(=O)[C@H](Cc2ccc(O)cc2)NC(=O)[C@H](Cc2ccc(O)cc2)NC(=O)[C@H](CC(N)=O)NC(=O)[C@H](Cc2c[nH]c3ccccc23)NC(=O)[C@H](C(C)C)NC(=O)[C@H](Cc2ccccc2)N(C)C(=O)[C@H](C(C)C)NC(=O)[C@H](C)NC(=O)CSC[C@@H](C(=O)N(C)CC(=O)N(C)CC(=O)N(C)CC(N)=O)NC(=O)[C@H](Cc2ccc(O)cc2)N(C)C(=O)[C@H](Cc2ccc(O)cc2)NC(=O)[C@H](CCCNC(=N)N)NC(=O)[C@H](CCCNC(=N)N)NC(=O)[C@H]([C@@H](C)CC)NC1=O [compound 298]
Kd [1]: 1 to 100 nM
